Assay results published in ChEMBL document CHEMBL3430912, “GSK Tres Cantos Anti-Kinetoplastid Screening (TCAKS) Data”.

Tests used:
[1] = test system: Leishmania donovani; experiment: (§1) GSK_TCAKS: pIC50 Leishmania donovani Imaging: Amastigotes/Macrophages. Assay plates (384-well) were prepared by adding 250nL of compound to each well. For single shot assay, the final compound concentration was 5 uM. […] Automated image analysis was performed with a script developed on Acapella High Content Imaging and Analysis Software (PerkinElmer). Output: Average number of amastigotes per macrophage cell were reported for each well.; format: functional, organism-based, Homo sapiens; settings: THP-1
[2] = test system: Trypanosoma cruzi; experiment: GSK_TCAKS: pIC50 Trypanosoma cruzi viability assay using beta-GAL activity. This assay was run at single shot at 5uM compound concentration per well. The biological reagents consisted of NIH-3T3 host cells and trypomastigotes parasitic cells; both cell types were set to a 3.3 * 10^5 cells/mL dilution in assay DMEM by means of a CASY cell counter device using a 60um capillary. 6 uL of the mixture were dispensed per well (about 1 * 10^3 host-cells and 1 * 10^3 parasites) with a Multidrop Combi dispenser. […] In all wells, the percentage of DMSO never exceeded 0.5%. Plates incubated for four days at 37C, 5% CO2. The substrate used for the assay fluorescence intensity (FLINT) readout was resorufin-beta-D-galactopiranoside (Sigma-Aldrich) at 5uM per well. It was diluted in PBS supplemented with the soft detergent Igepal (Fluka).; format: functional, organism-based, Mus musculus; settings: Tulahuen, NIH3T3
[3] = target: Sterol 14-alpha demethylase (Trypanosoma cruzi (strain CL Brener), UniProt Q7Z1V1); experiment: GSK_TCAKS: pIC50 CYP51 from Trypanosoma cruzi.; format: functional
[4] = test system: Leishmania donovani; experiment: as §1, with “THP-1 Host Macrophages.” for “Amastigotes/Macrophages.”, “THP-1” for “Average number of amastigotes per macrophage”, “cell count” for “cell”; format: functional, organism-based, Homo sapiens
[5] = test system: Trypanosoma brucei brucei; experiment: GSK_TCAKS: pIC50 Trypanosoma brucei viability assay using fluorescence intensity. Assay plates (1536-well) were prepared by dispensing 25nL of compound solution per well using an Echo acoustic dispenser (Labcyte).; format: functional, organism-based; settings: Lister 427, 2 h
[6] = test system: Trypanosoma brucei brucei; experiment: GSK_TCAKS: pIC50 Trypanosoma brucei viability assay using luminiscence. Assay plates (1536-well) were prepared. T. brucei cultures were harvested and counted in a CASY cell counter. A parasite suspension was prepared at a final concentration of 5 * 10^4 cells/mL in complete HMI9 medium and 6uL was dispensed to all wells containing compounds using a Multidrop Combi dispenser. 6uL of HMI9 media with 0.4% DMSO were dispensed to control columns. Plates were incubated for 24 h at 37C, 5% CO2 then tempered for 10 min at room temperature. ATP content was quantified by adding 4 uL of CellTiter-Glo Reagent (Promega) according to the manufacturer's instructions. Luminescence was measured using a ViewLux.; format: functional, organism-based; settings: Lister 427, CASY
[7] = test system: Trypanosoma cruzi; experiment: (§2) GSK_TCAKS: pIC50 H2C9 Imaging: H9c2 Host Cardiomyocytes. […] Cells were then washed once with PBS before infection. T. cruzi trypomastigotes, collected at days 5 to 8 after infection from LLC-MK2 parasite infected cultures, were allowed to swim out for 4h at 37C from a centrifuged pellet (2,500 rpm/10 min/room temperature). Trypomastigotes were then collected and counted in a CASY Cell Counter. Trypomastigotes, in supplemented DMEM, were added to H9c2 cultures in a multiplicity of infection of 1 and incubated for 18 h. Cells were washed once with PBS before incubation of the infected H9c2 monolayer with trypsin (Life-Technologies) to detach cells from the flask. Cells were counted in a CASY Cell Counter using a 150 um capillary and their density set at 5 * 10^4 cells per mL in supplemented assay DMEM. Infected H9c2 were dispensed into 384-well poly-lysine coated assay plates at 50uL per well using a Multidrop Combi dispenser. After seeding them, the plates were incubated at 37C, 5% CO2 for 72h. Cultures were then fixed and stained by addition of 50 uL of a solution containing 8% formaldehyde and 4 uM DRAQ5 DNA dye (BioStatus, UK) per well. […] Five images were collected per well for reliable statistical analysis. Automated image analysis was performed with a script developed on Acapella High Content Imaging and Analysis Software (PerkinElmer). Output: Number of H9c2 Host Cardiomyocytes nuclei to determine drug-related cytotoxicity.; format: functional, organism-based, Rattus norvegicus; settings: H9c2, 4 h
[8] = test system: Trypanosoma cruzi; experiment: as §2, with “Trypanosoma cruzi” for “H2C9”, “Amastigotes/Cell.” for “H9c2 Host Cardiomyocytes.”, “number” for “Number”, “amastigotes per cell as infection level measurement.” for “H9c2 Host Cardiomyocytes nuclei to determine drug-related cytotoxicity.”; format: functional, organism-based, Rattus norvegicus; settings: H9c2, 4 h
[9] = GSK_TCAKS: pIC50 HepG2 human cell line viability assay using luminiscence. […] Seeding density was checked to ensure that new mono-layers were not more than 50% confluent at the time of harvesting. Cell suspension was added to 500 mL of the same medium at a final density of 1.2 * 10^5 cells/mL. This cell suspension was dispensed (25 uL, 3000 cells per well) into 384-well clear-bottom plates using a Multidrop Combi dispenser. Prior to addition of the cell suspension, the screening compounds (250 nL) were pre-dispensed into the plates with an Echo liquid handler. Plates were incubated for 48 h at 37C, 5% CO2. After incubation, plates equilibrated at room temperature for 30 min before proceeding to develop the luminescent signal. The signal developer, CellTiter-Glo Reagent, was allowed to equilibrate at room temperature for 30 min and added to the plates (25uL per well) using a Multidrop Combi dispenser. Plates were left for 10 min at room temperature for stabilization and then read using a ViewLux.; format: toxicity, cell-based
[10] = test system: Leishmania donovani; experiment: GSK_TCAKS: pIC50 Leishmania donovani viability assay using fluorescence intensity. Assay plates (1536-well) were prepared by adding 30nL per well of compound. For single shot assay, the final compound concentration was 5uM. […] Briefly, eGFP LdBOB axenic amastigotes were harvested, fixed and counted in a CASY cell counter (Roche-Applied Science). A final concentration of 1.5 * 10^5 cells per well were prepared in amastigote media containing 500 U/mL penicillin/streptomycin (Invitrogen) and 6uL was dispensed to each experimental well using a Multidrop Combi dispenser (Thermo Scientific). 6uL of assay media was dispensed to control columns used as reference for 100% compound response. Following incubation for 72 h at 37C, 5% CO2, 2 uL of resazurin was added to each well at a final concentration of 0.5 mM in phosphate buffered saline (PBS) with IGEPAL (Sigma-Aldrich), 0.05% (v/v).; format: functional, organism-based
[11] = test system: Leishmania donovani; experiment: as §1, with “Infected Macrophages.” for “Amastigotes/Macrophages.”, “Percent” for “Average number”, “infected” for “amastigotes per”, “cells” for “cell”; format: functional, organism-based, Homo sapiens; settings: THP-1
[12] = test system: Trypanosoma cruzi; experiment: as §2, with “Trypanosoma cruzi” for “H2C9”, “Infected Cells.” for “H9c2 Host Cardiomyocytes.”, “percentage” for “Number”, “infected cells per well as a second infection marker.” for “H9c2 Host Cardiomyocytes nuclei to determine drug-related cytotoxicity.”; format: functional, organism-based, Rattus norvegicus; settings: H9c2, 4 h

Sterol 14-alpha demethylase, sequence (Q7Z1V1 whole entry): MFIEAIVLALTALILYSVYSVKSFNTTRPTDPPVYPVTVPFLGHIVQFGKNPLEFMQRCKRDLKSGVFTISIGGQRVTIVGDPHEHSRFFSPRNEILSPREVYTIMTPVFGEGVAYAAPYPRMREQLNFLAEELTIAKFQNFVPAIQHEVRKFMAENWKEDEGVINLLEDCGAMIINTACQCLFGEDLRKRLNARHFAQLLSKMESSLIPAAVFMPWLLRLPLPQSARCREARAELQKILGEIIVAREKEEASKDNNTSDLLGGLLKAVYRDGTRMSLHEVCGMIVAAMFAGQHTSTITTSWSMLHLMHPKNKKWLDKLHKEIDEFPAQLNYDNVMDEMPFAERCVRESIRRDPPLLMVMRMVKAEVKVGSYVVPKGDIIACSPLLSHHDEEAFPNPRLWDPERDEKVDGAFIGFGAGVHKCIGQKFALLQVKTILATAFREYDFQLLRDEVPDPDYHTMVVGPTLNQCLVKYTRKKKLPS

Structure (SMILES) | IC50 [1] | IC50 [2] | IC50 [3] | IC50 [4] | IC50 [5] | IC50 [6] | IC50 [7] | IC50 [8] | IC50 at 48 h [9] | IC50 [10] | IC50 [11] | IC50 [12]
O=C(Nc1nc(-c2ccccn2)cs1)c1ccccc1-n1cnnn1 | 3.98 µM | 3.55 µM | > 100 µM | 5.01 µM | 0.631 µM | 0.631 µM | 5.01 µM | 2 µM | 1.58 µM | 3.16 µM | 6.31 µM | 3.16 µM
Cc1ccccc1CNC(=O)CN(Cc1ccccn1)Cc1ccccn1 | 3.98 µM | 5.01 µM | 100 µM | > 79.4 µM | 6.31 µM | 20 µM | > 79.4 µM | 6.31 µM | > 158 µM | 10 µM | 6.31 µM | 15.8 µM
O=C(CN(Cc1ccccn1)Cc1ccccn1)NC1Cc2ccccc2C1 | 5.01 µM | 5.01 µM | 79.4 µM | > 79.4 µM | 20 µM | 12.6 µM | > 79.4 µM | 6.31 µM | > 158 µM | 12.6 µM | 5.01 µM | 12.6 µM
CC(CCc1ccccc1)NC(=O)CN(Cc1ccccn1)Cc1ccccn1 (stereo unspecified) | 3.16 µM | 2.51 µM | 63.1 µM | 20 µM | 10 µM | 5.01 µM | > 79.4 µM | 3.16 µM | > 158 µM | 7.94 µM | 3.16 µM | 10 µM
O=C(CN(Cc1ccccn1)Cc1ccccn1)NCc1ccc2c(c1)OCO2 | 6.31 µM | 7.94 µM | 100 µM | > 79.4 µM | 6.31 µM | 20 µM | > 79.4 µM | 6.31 µM | > 158 µM | 12.6 µM | 7.94 µM | 12.6 µM
O=C(CN(Cc1ccccn1)Cc1ccccn1)NCc1csc(-c2cccs2)n1 | 3.16 µM | 3.98 µM | 39.8 µM | > 50.1 µM | 20 µM | 15.8 µM | > 50.1 µM | 2.51 µM | > 100 µM | 12.6 µM | 6.31 µM | 6.31 µM
Cc1nn(-c2ccccc2)nc1CNC(=O)CN(Cc1ccccn1)Cc1ccccn1 | 5.01 µM | 3.98 µM | 25.1 µM | > 63.1 µM | 31.6 µM | 10 µM | > 63.1 µM | 3.16 µM | > 126 µM | 7.94 µM | 5.01 µM | 10 µM
O=C(CN(Cc1ccccn1)Cc1ccccn1)NCc1ccc(-c2csnn2)cc1 | 5.01 µM | 3.98 µM | 39.8 µM | > 79.4 µM | 12.6 µM | 7.94 µM | > 79.4 µM | 7.94 µM | 25.1 µM | 7.94 µM | 5.01 µM | 63.1 µM
